Data reported in patent US20050288347A1, “Certain triazole-based compounds, compositions, and uses thereof” (priority 2004, published 2005).
Entries after “also recorded” stand apart in the source; their conditions may differ.

Biological target: protein kinase
Assay: HTS ATP-utilizing enzyme assay, off-chip mobility-shift format (Caliper HTS 250)
Type: biochemical, human
Settings: test compound 10 μM; for Kinase: kinase(s) for which the compound exhibits protein kinase inhibitory activity, active = greater than three-sigma from the mean activity of inactive compounds; for protein kinase against which the compound exhibits inhibitory activity (Table 3): active = activity greater than three-sigma from the mean of the predominately inactive population for that enzyme
In short: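 Single-point screen at 10 μM compound in HEPES pH 7.5 buffer with Triton X-100 and BSA, 2.5 h at 20–22 °C. Substrate-to-phosphopeptide ratio measured by off-chip microfluidic mobility shift; EDTA wells as 100% and DMSO wells as 0% control, hits called at three-sigma limits.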

Structure (SMILES)	Kinase	protein kinase against which the compound exhibits inhibitory activity (Table 3)
Cn1c(SCC(=O)Nc2cccc(NC(=O)c3ccco3)c2)nnc1-c1ccncc1	GSK3-β; also recorded: AURORA-A; also recorded: GSK3-α	–
O=C(CSc1nnc(-c2cccnc2)n1Cc1ccccc1)CC(=O)Nc1ccccc1	AURORA-A	–
Cn1c(CNc2nc(-c3ccccc3)cs2)nnc1SCC(=O)NCc1ccccc1	PDGFRR-α and PKA	–
O=C(CSc1nnc(-c2ccc(O)cc2)n1-c1ccccc1)NNC(=O)c1ccc(Cl)cc1	–	AURORA-A
CCCCSc1nnc(-c2ccc(Cl)c(Cl)c2)[nH]1 [3-(butylthio)-5-(3 ,4-dichlorophenyl)-4H-1,2,4-triazole]	–	AURORA-A; also recorded: FLT-3; also recorded: GSK3-α
O=C(O)CSc1nnc(-c2ccc(O)cc2)n1-c1ccccc1 [2-(5-(4-hydroxyphenyl)-4-phenyl-4H-1,2,4-triazol-3-ylthio)acetic acid]	GSK3-β; also recorded: GSK3-α	–
Cc1ccc(-c2nnc(CSc3nnc(-c4ccc(S(=O)(=O)N5CCOCC5)cc4)n3C)o2)cc1	–	GSK3-β; also recorded: GSK3-α
C=CCn1c(SCC(=O)NCCCN2CCOCC2)nnc1-c1sc2ccccc2c1Cl	LYNA	–
O=C(CSc1nnc(-c2ccncc2)n1Cc1ccco1)Nc1cccc(I)c1	GSK3-β and AKT3 and SRC	–
COc1ccc(-n2c(S)nnc2-c2ccc(NS(=O)(=O)c3ccc(C)cc3)cc2)cc1	GSK3-β; also recorded: GSK3-α; also recorded: AURORA-A	–
CCOc1ccc(NCc2nnc(SCC#N)n2-c2cccc(Cl)c2)cc1	PDGFRR-α and FYN	–
O=C(CSc1nncn1-c1ccccn1)Nc1nccs1 [2-(4-(pyridin-2-yl)-4H-1,2,4-triazol-3-ylthio)-N-(thiazol-2-yl)acetamide]	GSK3-α	–
COc1ccc(-c2nnc(SCC(=O)OC3CCCCCC3)n2-c2cccc(C(F)(F)F)c2)cc1	FLT-3	–
OCCSc1nnc(-c2ccccc2)[nH]1 [2-(5-phenyl-4H-1,2,4-triazol-3-ylthio)ethanol]	–	FLT-3; also recorded: AURORA-A; also recorded: DYRK2
COc1ccc(-c2nnc(SCC(N)=O)n2-c2ccccc2)cc1 [2-(5-(4-methoxyphenyl)-4-phenyl-4H-1,2,4-triazol-3-ylthio)acetamide]	PDK1	–
CN(C)c1cccc(OCc2nnc(S)n2-c2ccccc2)c1 [5-((3-(dimethylamino)phenoxy)methyl)-4-phenyl-4H-1,2,4-triazole-3-thiol]	GSK3-α	–
COC(=O)c1ccccc1NC(=O)CSc1nnc(CNc2cccc(Cl)c2)n1C	AURORA-A	–
COc1ccc(-c2nnc(S)n2Cc2ccco2)cc1OC [5-(3,4-dimethoxyphenyl)-4-(furan-2-ylmethyl)-4H-1,2,4-triazole-3-thiol]	MSK2	–
COc1ccc(-c2nnc(SCC(O)CO)[nH]2)cc1 (centres unmarked) [3-(5-(4-methoxyphenyl)-4H-1,2,4-triazol-3-ylthio)propane-1,2-diol]	–	AURORA-A; also recorded: FLT-3; also recorded: DYRK2
CCc1ccccc1NC(=O)CSc1nnc(COc2ccc(C)cc2)n1C	PDGFRR-α	–
CCOc1ccc(NCc2nnc(SCC(=O)Nc3cccc(C(C)=O)c3)n2-c2ccccc2)cc1	FYN and PDGFRR-α and FLT-3	–
Cn1c(SCC(N)=O)nnc1-c1ccc([N+](=O)[O-])cc1 [2-(4-methyl-5-(4-nitrophenyl)-4H-1,2,4-triazol-3-ylthio)acetamide]	PDGFRR-α and FYN	–
COc1ccc(-c2nnc(SCC(=O)NNC(=O)c3ccc(Br)cc3)n2C)cc1	–	CHEK2; also recorded: GSK3-β; also recorded: GSK3-α
CCn1c(SCC(=O)Nc2ccccc2)nnc1-c1ccc(O)cc1	CHEK2	–
COCCCn1c(SCC(=O)O)nnc1-c1ccc(C(C)(C)C)cc1	CHEK2	–

Structure (SMILES)	Kinase	protein kinase against which the compound exhibits inhibitory activity (Table 3)
CCc1nnc(NC(=O)CSc2nnc(-c3ccc(S(=O)(=O)N4CCN(C)CC4)cc3)n2CC)s1	CHEK2	–
COc1ccccc1-n1c(SCCC(=O)OCc2ccccc2)nnc1C1CCCCC1	–	AURORA-A
COc1ccccc1-n1c(SCC(=O)Nc2ccc3sc(C)nc3c2)nnc1-c1ccccc1O	CDK1	–
COc1ccccc1-n1c(SCc2cccc(C(=O)O)c2)nnc1-c1cccc(Cl)c1	–	ROCK2
NC(=O)CSc1nnc(-c2ccc(O)cc2)n1Cc1ccco1	GSK3-β; also recorded: GSK3-α	–
CC(Sc1nnc(CNc2ccc(Cl)cc2)n1Cc1ccccc1)C(=O)O (centres unmarked)	DAPK1	–
Clc1cccc(NCc2nnc(SCc3ccc(Cl)cc3Cl)n2-c2ccccc2)c1	–	LCK
Cn1c(SCC(=O)OC2CCCCC2)nnc1-c1cc2ccccc2cc1O	AURORA-A; also recorded: DAPK1; also recorded: c-TAK1	–
COc1ccc(NCc2nnc(SCCN3CCCCC3)n2-c2ccccc2OC)cc1	–	FYN and PDGFRR-α and FLT-3
O=C(CSc1nnc(-c2ccc(O)cc2)n1Cc1ccco1)N1CCCc2ccccc21	GSK3-β; also recorded: GSK3-α	–
COc1ccc(NCc2nnc(S)n2-c2ccc(C)cc2)cc1 [5-((4-methoxyphenylamino)methyl)-4-p-tolyl-4H-1,2,4-triazole-3-thiol]	AURORA-A and PDGFRR-α and MSK2	–
CCCCSc1nnc(-c2ccc([N+](=O)[O-])cc2)[nH]1 [3-(butylthio)-5-(4-nitrophenyl)-4H-1,2,4-triazole]	–	AURORA-A; also recorded: GSK3-α
CCn1c(COc2ccc(OC)cc2)nnc1SCc1ccc(Cl)cc1	–	CDK2-cyclinE
O=C(O)CSc1nnc(-c2ccc(S(=O)(=O)N3CCOCC3)cc2)n1-c1ccccc1	CHEK2	–
N#Cc1cccc(CSc2nnc(-c3cccs3)[nH]2)c1	–	AURORA-A; also recorded: GSK3-β; also recorded: GSK3-α
COc1ccc(C(=O)NNC(=O)CSc2nnc(C)n2CC2CCCO2)cc1 (centres unmarked)	–	SYK
Cc1cccc(C)c1NC(=O)C(C)Sc1nnc(CNc2ccc(Cl)cc2)n1-c1ccccc1 (centres unmarked)	CDK2-cyclinE	–
CCn1c(SCC(=O)Nc2ccccc2C)nnc1C(C)C [2-(4-ethyl-5-isopropyl-4H-1,2,4-triazol-3-ylthio)-N-o-tolylacetamide]	PDGFRR-α	–
CCn1c(SCC(=O)O)nnc1-c1ccc(S(=O)(=O)N2CCOCC2)cc1	CDK1	–
Cc1ccc(-n2c(SCc3nnc(-c4ccccc4)o3)nnc2-c2ccncc2)cc1	–	GSK3-β; also recorded: GSK3-α
Cc1ccc(OCc2nnc(SCC#N)n2C)cc1 [2-(4-methyl-5-(p-tolyloxymethyl)-4H-1,2,4-triazol-3-ylthio)acetonitrile]	CSK	–
Cc1ccc(NC(=O)CSc2nnc(-c3ccccc3O)n2-c2ccc(C)cc2)cc1	AURORA-A	–
c1ccc(OCc2nnc(SCC3CC3)[nH]2)cc1 [3-(cyclopropylmethylthio)-5-(phenoxymethyl)-4H-1,2,4-triazole]	–	GSK3-α; also recorded: GSK3-β; also recorded: AURORA-A
COc1ccc(NCc2nnc(SCCN3CCCCC3)n2-c2cccc(Cl)c2)cc1	–	FYN and PDGFRR-α and FLT-3
CCOC(=O)c1ccc(CSc2nnc(Cc3ccc(OC)cc3)[nH]2)o1	–	FLT-3
